From patent US11198695B2, “Fused ring derivative having MGAT-2 inhibitory activity” (Shionogi & Co., Ltd., priority 2017, dated 2021)

Biological target: recombinant human MGAT2 (Homo sapiens (Human), UniProt Q3SYC2)
Test: Measurement of human MGAT2 inhibitory activity
Assay type: biochemical
Details: read-out: IC50 (concentration exhibiting 50% enzyme inhibition), Table 53
Summary of the method: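 Membrane fraction of Sf9 cells expressing N-terminally Flag-tagged full-length human MGAT2, incubated 1 h at room temperature in 100 mmol/L phosphate pH 7.4 with 2 mmol/L DTT. The substrate solution held 30 μmol/L 2-oleoylglycerol and 10 μmol/L oleoyl-CoA. Diolein product was quantified by RapidFire ESI Q-TOF MS against diolein-d5 internal standard; % inhibition was set relative to with/without-enzyme controls.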

Chain of recombinant human MGAT2 (Q3SYC2 whole entry): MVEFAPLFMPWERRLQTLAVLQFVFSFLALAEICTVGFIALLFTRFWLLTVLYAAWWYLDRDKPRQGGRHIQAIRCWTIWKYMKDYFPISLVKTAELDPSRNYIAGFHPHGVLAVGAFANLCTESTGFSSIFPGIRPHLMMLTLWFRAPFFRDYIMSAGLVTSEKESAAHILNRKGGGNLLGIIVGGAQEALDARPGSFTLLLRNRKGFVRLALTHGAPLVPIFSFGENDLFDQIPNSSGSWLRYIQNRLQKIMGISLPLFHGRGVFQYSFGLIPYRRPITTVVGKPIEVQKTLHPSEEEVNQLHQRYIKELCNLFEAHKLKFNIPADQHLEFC

IC50 [µM] | SMILES
0.0071 | CS(=O)(=O)CC(=O)Nc1c2c(nn1CCC1CC1)C[C@@]1(CCc3cc(OC4CC4)ccc31)NC2=O [II-98]
0.00959 | CS(=O)(=O)CC(=O)Nc1c2c(nn1CCC1CC1)C[C@@]1(CCc3cc(OCCOCC(F)F)ccc31)NC2=O [II-99]
0.00476 | CS(=O)(=O)CC(=O)Nc1c2c(nn1CCC1CC1)C[C@@]1(CCc3cc(OCCOCC(F)(F)F)ccc31)NC2=O [II-100]
0.00125 | CS(=O)(=O)CC(=O)Nc1c2c(nn1CCC1CC1)C[C@@]1(CCc3cc(OCCCC(F)(F)F)ccc31)NC2=O [II-101]
0.0563 | CS(=O)(=O)CC(=O)Nc1c2c(nn1-c1ccc(C#N)cn1)CC1(Cc3cc(F)c(F)cc3C1)NC2=O [II-102]
0.0115 | CS(=O)(=O)CC(=O)Nc1c2c(nn1-c1ccc(C#N)c(F)c1)C[C@]1(CCc3cc(OCC(F)(F)F)ccc31)NC2=O [II-104]
0.00268 | CS(=O)(=O)CC(=O)Nc1c2c(nn1-c1ccc(C3CC3)nn1)C[C@]1(CCc3cc(OCC(F)(F)F)ccc31)NC2=O [II-105]
0.00172 | CS(=O)(=O)CC(=O)Nc1c2c(nn1-c1ccc(C(F)(F)F)nn1)C[C@]1(CCc3cc(OCC(F)(F)F)ccc31)NC2=O [II-106]
0.0407 | CS(=O)(=O)CC(=O)Nc1c2c(nn1-c1ccon1)C[C@]1(CCc3cc(OCC(F)(F)F)ccc31)NC2=O [II-107]
0.00251 | N#Cc1ccc(-n2nc3c(c2C(=O)NCC2(O)CCC2)C(=O)N[C@@]2(CCc4cc(OCC(F)(F)F)ccc42)C3)nc1 [II-108]
0.0231 | N#Cc1ccc(-n2nc3c(c2C(=O)NCC2(CO)CCCC2)C(=O)N[C@@]2(CCc4cc(OCC(F)(F)F)ccc42)C3)nc1 [II-109]
0.0304 | N#Cc1ccc(-n2nc3c(c2C(=O)NC2(C#N)CC2)C(=O)N[C@@]2(CCc4cc(OCC(F)(F)F)ccc42)C3)nc1 [II-110]
0.0508 | CS(=O)(=O)CCNC(=O)c1c2c(nn1-c1ccc(C#N)cn1)C[C@]1(CCc3cc(OCC(F)(F)F)ccc31)NC2=O [II-111]
0.00528 | N#Cc1ccc(-n2nc3c(c2C(=O)NCC2(O)CC2)C(=O)N[C@@]2(CCc4cc(OCC(F)(F)F)ccc42)C3)nc1 [II-112]
0.00823 | N#Cc1ccc(-n2nc3c(c2C(=O)NC2(C#N)CCCCC2)C(=O)N[C@@]2(CCc4cc(OCC(F)(F)F)ccc42)C3)nc1 [II-113]
0.0603 | N#Cc1ccc(-n2nc3c(c2C(=O)NCCOC(F)(F)F)C(=O)N[C@@]2(CCc4cc(OCC(F)(F)F)ccc42)C3)nc1 [II-114]
0.204 | CC(C)(CNC(=O)c1c2c(nn1-c1ccc(C#N)cn1)C[C@]1(CCc3cc(OCC(F)(F)F)ccc31)NC2=O)C(N)=O [II-115]
0.00396 | N#Cc1ccc(-n2nc3c(c2C(=O)NCC2(CO)CCC2)C(=O)N[C@@]2(CCc4cc(OCC(F)(F)F)ccc42)C3)nc1 [II-116]
0.0379 | N#Cc1ccc(-n2nc3c(c2C(=O)N[C@H]2C[C@H](O)C2)C(=O)N[C@@]2(CCc4cc(OCC(F)(F)F)ccc42)C3)nc1 [II-117]
0.00626 | N#Cc1ccc(-n2nc3c(c2C(=O)NCC2(O)COC2)C(=O)N[C@@]2(CCc4cc(OCC(F)(F)F)ccc42)C3)nc1 [II-118]
0.0268 | N#Cc1ccc(-n2nc3c(c2C(=O)NCC2(O)CCOC2)C(=O)N[C@@]2(CCc4cc(OCC(F)(F)F)ccc42)C3)nc1 (some centres unmarked) [II-119]
0.00929 | Cc1ccc(-n2nc3c(c2NC(=O)CS(C)(=O)=O)C(=O)N[C@@]2(CCc4cc(N5CC(F)(F)C5)ccc42)C3)nc1 [II-120]
0.00568 | Cc1ccc(-n2nc3c(c2NC(=O)CS(C)(=O)=O)C(=O)N[C@@]2(CCc4cc(C(F)(F)F)ccc42)C3)nc1 [II-122]
0.0217 | COCCCNC(=O)c1c2c(nn1-c1ccc(C#N)cn1)C[C@]1(CCc3cc(OCC(F)(F)F)ccc31)NC2=O [II-123]
0.0196 | N#Cc1ccc(-n2nc3c(c2C(=O)NCC(F)(F)F)C(=O)N[C@@]2(CCc4cc(OCC(F)(F)F)ccc42)C3)nc1 [II-124]
0.0635 | COCCNC(=O)c1c2c(nn1-c1ccc(C#N)cn1)C[C@]1(CCc3cc(OCC(F)(F)F)ccc31)NC2=O [II-125]
